Results as given in patent US6589504B1, “Compounds and methods for diagnosing and treating amyloid-related conditions” (Pharmacia & Upjohn Company, priority 2000, dated 2003).
Where two headings read alike, the source gives them in different places. Values belong to the compound of their own block, whether it stands above or below them.

Legend:
[1] = system: amyloid-like proteins with a beta-pleated sheet conformation; conditions: in vitro; cited from earlier work
[2] = target: T1, human β-amyloid containing plaques (Homo sapiens, UniProt P05067); experiment: Determination of in vivo brain distribution (fluorescence of brain sections)
T1 construct: from tissue; host or cells: brain of transgenic (Tg) mice carrying the human β-APP gene
T1 sequence (P05067 672-713 limits assumed): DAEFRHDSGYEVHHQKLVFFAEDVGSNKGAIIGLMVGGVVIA
Protocol: Transgenic mice, designated “Tg”, were obtained. The transgenic mice carry the human gene for β-APP, a gene associated with β-amyloid deposition in the brain. The mice were treated with.the quinolinehydrazone compound, 4-methyl-7-methoxy-2-(4-quinolylmethylhydrazino)quinoline. Dosing was administered either intravenously or orally. The intravenous dose was administered as a single injection (50 μmol/kg). Orally-treated animals received a single dose (400 μmol/kg) via oral gavage, or were dosed twice-a-day for 10 days (400 μmol/kg/dose/day).
Age-matched normal mice served as a negative control, i.e. no plaque formation in the animals was indicated. The control mice were treated in the same manner as the transgenic mice, but with placebo.
In addition, a group of age-matched Tg mice were treated with the carrier vehicle only.
All animals were sacrificed beginning 1, 3 and 10 h after the final dose. Fresh brains of the animals were removed, bisected, and positioned in […] (OCT). The brains were immersed into 2-methylbutane, pre-cooled to […] with liquid nitrogen. The brains were cut into 20 μm thick sections at a temperature of −20° C. Brain sections were collected onto poly-L-lysine-coated glass microscopic slide and treated with (1 drop) of 75%, by volume (v/v), glycerin in […](PBS). […]
The section adjacent to each compound-treated section of the brain was stained with thioflavin S (Sigma Chemicals, Milwaukee, Wis., U.S.A.). Sections stained with thioflavin S served as a positive control for identifying plaque. The distribution of compound-associated fluorescence was compared with the distribution of thioflavin S-stained section in order to confirm whether the compound bound plaque.
All sections were examined 1 h later to assess artifactual drug diffusion within thawed sections over time.

[3] = Dose-dependent pharmacokinetics: plasma and brain Cmax after oral dosing; format: in vivo; conditions: normal mice, 400 to 3,200 μmol/kg
Protocol: Dose-proportionality characteristics were assessed by measuring the maximum concentration (Cmax) for plasma and brain concentrations after oral dosing of normal mice. […] Plasma and brain concentrations were measured by HPLC at 0.5 to 24 hours.

[4] = In vivo determination of plasma and brain exposure (AUC) after oral dosing; conditions: normal mice; for Kp: brain/plasma
Protocol: Plasma and brain exposure were assessed by measuring area under the curve (AUC) after oral dosing of normal mice.
The brain to plasma ratios were calculated and reported below.
The terminal half-life of compound in the brain was measured to determine the dosing frequency for 10-day tolerance studies. For the three highest doses, brain terminal half-life ranged from 5-7 h.

[5] = target: T2, amyloid plaque in brains of Tg mice (Homo sapiens, UniProt P05067); experiment: Postmortem staining of amyloid plaque in brain sections
T2 construct: from tissue; host or cells: frozen, methanol-fixed brain sections of 12-14 month-old Tg mice
T2 sequence (P05067 672-713 limits assumed): as above
Protocol: Brains from 12-14 month-old Tg mice were frozen and sectioned at −20° C. Each section was fixed in ice cold methanol (Aldrich Chemical Co., Milwaukee, Wis.) for 10 minutes, rinsed in buffer and incubated in 4-methyl-7-methoxy-2-(4-quinolylmethylenehydrazino)quinoline for 90 minutes at room temperature. […] Fluorescence intensity in Tg mouse amyloid decreased with drug concentration. […] The […] mouse brains were confirmed to be plaque-free.

Neuronal cells = experiment: In vitro antioxidant effect, neuronal cytoprotection model; format: cell-based; conditions: 1, 3, 10, 30 and 100 μM, with and without ferrous ammonium sulfate, 3 hours, LC/MS
Protocol: The 4-methyl-7-methoxy-2-(4-quinolylmethylene-hydrazino)quinoline was dissolved in 100×stock of aqueous Locke's buffer to obtain concentrations of 1, 3, 10, 30, and 100 μM solution. Neuronal cells were incubated in each compound solution with and without ferrous ammonium sulfate (200 μm) for 3 hours. High concentration supernatant was obtained from each sample. The samples were analyzed under liquid chromatography/mass spectrometry (LC/MS).

[6] = system: primary neuronal model of FAS-induced lipid peroxidation toxicity; experiment: In vitro antioxidant effect, ferrous ammonium sulfate (FAS)-induced oxidative toxicity model; format: cell-based
Protocol: The 4-methyl-7-methoxy-2-(4-quinolylmethylene-hydrazino)quinoline was tested in a primary neuronal model of FAS-induced lipid peroxidation toxicity. The compound was treated in two manners. In one manner, the compound was solubilized as 100×stock in 100% dimethyl sulfoxide (DMSO) to afford panel A. In another manner, the compound was solubilized in aqueous Locke's buffer to give panel B.

[7] = 30 and 100 μM, 1% DMSO experiments (panel A)

Compound: Nc1c(N=Nc2ccc(-c3ccc(N=Nc4cc(S(=O)(=O)[O-])c5ccccc5c4N)cc3)cc2)cc(S(=O)(=O)[O-])c2ccccc12.[Na+].[Na+] [Congo red, 3,3′-[[1,1′-biphenyl]-4,4′-diylbis(azo)]bis[4-amino-1-naphthalenesulfonic acid] disodium salt]
binding to amyloid-like proteins [1]: demonstrated binding

plaque burden shown in brain sections compared with thioflavin S stained sections ([2]; Tg mice receiving the compound): marked plaque burden | drug-related fluorescence in brain sections in areas of plaque formation ([2]; Tg mice, i.v. 50 μmol/kg or oral 400 μmol/kg, λex 365 nm, λem 400 nm): intense drug-related fluorescence | brain penetration ([2]; Tg mice, i.v. or oral dosing): brain penetrable | Cmax for brain, dose proportionality [3]: increases proportionally | Cmax for plasma, dose proportionality [3]: increases proportionally | Kp ([4]; mouse, oral, dose 51 μmole/kg, read-out: B/P Ratio AUC): 5.3 | Kp ([4]; mouse, oral, dose 208 μmole/kg, read-out: B/P Ratio AUC): 3.2 | Kp ([4]; mouse, oral, dose 421 μmole/kg, read-out: B/P Ratio AUC): 2.5 | Kp ([4]; mouse, oral, dose 831 μmole/kg, read-out: B/P Ratio AUC): 5.7 | Kp ([4]; mouse, oral, dose 1472 μmole/kg, read-out: B/P Ratio AUC): 5.7 | Kp ([4]; mouse, oral, dose 3024 μmole/kg, read-out: B/P Ratio AUC): 7.3 | Kp ([4]; mouse, oral, over the dose range tested, read-out: brain levels relative to plasma levels, average): 5 | half-life ([4]; mouse, brain, oral, three highest doses, read-out: brain terminal half-life): 5 to 7 h | plasma exposure, saturation ([4]; oral, 3,024 μmol/kg): evidence of saturation | brain exposure, dose dependence ([4]; oral, 421 to 1,472 μmol/kg): increased more rapidly | plasma exposure, dose proportionality ([4]; oral, 421 to 1,472 μmol/kg): increased proportionally | localization of compound fluorescence, confirmed by thioflavin S staining of adjacent sections ([5]; Tg mouse brain sections): does localize in amyloid plaques | staining in brains of transgene-free mice ([5]; brain sections of transgene-free mice): not in brains of transgene-free mice
Compound: COc1ccc2c(C)cc(NN=Cc3ccnc4ccccc34)nc2c1 [4-methyl-7-methoxy-2-(4-quinolylmethylenehydrazino)quinoline]
binding to plaques in vivo ([2]; Tg mice, i.v. or oral dosing): preferentially binds to human β-amyloid containing plaques | penetration to the brain tissue ([4]; oral): good penetration of the compound to the brain tissue | antioxidant effect (Neuronal cells): demonstrated antioxidant properties | cell morphology, brightfield photographs ([6]; 10 μM + FAS cells versus control cells): no different than cells treated with no drug and no FAS | neuronal protection against FAS ([6]; 10 μM compound, 200 μM FAS, 3 hours, 14C-AIB uptake or LDH release): close to or complete neuronal protection | drug toxicity to neuronal cells ([6]; 30 μM, aqueous preparation (panel B)): much less drug toxicity | concentration range of concentration-dependent inhibition of FAS toxicity ([6]; 200 μM FAS, 3 hours, 14C-AIB uptake or LDH release): 0.3 to 10 µM | drug toxicity to neuronal cells [6, 7]: inherent drug toxicity | neuronal protection against FAS [6, 7]: no neuronal protection | neuronal protection against FAS ([6]; 30 and 100 μM, aqueous preparation (panel B)): considerable neuronal protection
